Assays:
[1] = system: maize; experiment: Field trial, phytotoxicity to maize (post-emergence)
Procedure: (§1) The field experiments were carried out in plots of 8 to 10 m^2, and each experiment was carried out in 2 to 4 replications. After the crop plants had been sown, the test preparations were applied pre-emergence, or in the 2-6-leaf stage, using plot sprayers. The spray volume was 100-300 l water/ha; it was applied by means of flat-jet nozzles at a pressure of 2-3 bar. Evaluation was done by visual scoring. The effects on the crop plants or on the broad-leaved weeds/grass weeds were estimated in comparison with untreated control plots using a percentage scale (0-100%). After application, the plants were scored 3-4 times at intervals of approx. 14, 28, 42 days after application. The results represent averages over 2-4 replications. […] Anti-weed action should show efficacies of ≧60%. From sowing until the experiments were concluded, they were exposed to the natural weather conditions (precipitation, temperature, atmospheric humidity, insolation), as they are characteristic for the experimental sites.

[2] = system: Setaria faberi; experiment: Field trial, action on grass weeds/broad-leaved weeds (post-emergence); assay type: in vivo; conditions: 100 g a.i./ha
Procedure: as §1

[3] = system: Abutilon theophrastis; experiment: as above; assay type: in vivo; conditions: 100 g a.i./ha
Procedure: as §1

[4] = system: Panicum minor; experiment: as above; assay type: in vivo; conditions: 100 g a.i./ha
Procedure: as §1

| Structure (SMILES) | Phytotoxicity to maize [%] 14 dat ([1]; maize, in vivo, 14 days) | Phytotoxicity to maize [%] 42 dat ([1]; maize, in vivo, 42 days) | Phytotoxicity [%] Setaria faberi [2] | Phytotoxicity [%] Abutilon theophrastis [3] | Phytotoxicity [%] Panicum minor [4] | Phytotoxicity to maize [%] 14 dat ([1]; field trial, 4-leaf stage (Table 11), 120 g a.i./ha, 14 days after treatment) | Phytotoxicity to maize [%] 42 dat ([1]; field trial, 4-leaf stage (Table 11), 120 g a.i./ha, 42 days after treatment) | Phytotoxicity to maize [%] 14 dat ([1]; field trial, 4-leaf stage, post-emergence, 100 g a.i./ha, 14 days after treatment) | Phytotoxicity to maize [%] 31 dat ([1]; field trial, 4-leaf stage, post-emergence, 100 g a.i./ha, 31 days after treatment) | Phytotoxicity to maize [%] 14 dat ([1]; field trial, mixture with sulfonylureas, post-emergence (Table 13), 120 g a.i./ha, 14 days after treatment) | Phytotoxicity to maize [%] 42 dat ([1]; field trial, mixture with sulfonylureas, post-emergence (Table 13), 120 g a.i./ha, 42 days after treatment) | Phytotoxicity [%] Maize ([1]; field trial, post-emergence (Table 12), 100 g a.i./ha) |
| --- | --- | --- | --- | --- | --- | --- | --- | --- | --- | --- | --- | --- |
| COc1cc(OC)nc(NC(=O)NS(=O)(=O)c2cc(NC=O)ccc2C(=O)N(C)C)n1 [Herbicide 2, N,N-Dimethyl-2-[3-(4,6-dimethoxypyrimidin-2-yl)ureido-sulfonyl]-4-formylaminobenzamide] | 13% | 7% |  |  |  |  |  |  |  |  |  |  |
| CCOC(=O)C1=NOC(c2ccccc2)(c2ccccc2)C1 [Safener II-9, Ethyl 5,5-diphenyl-2-isoxazoline-3-carboxylate] |  |  | 0% | 0% | 0% | 0% | 0% | 0% | 0% | 0% | 0% | 0% |

From patent publication US8748343B2, “Herbicide/safener combintions” (Bayer Cropscience AG, priority 1998, dated 2014)
